Literature values in patent US20180169002A1, “Skin Rejuvenation and Defense Systems and Methods” (Maple Mountain Group, Inc., priority 2015, published 2018).

Conditions: compared with glycerin

**Q.** Which moisturization efficacy does the source give for `NC(=O)NCCO` [Hydroxyethyl Urea, Hydroxyethyl urea] here?
**A.** comparable to the leading benchmark
